Results on 14 compounds are retold here after patent US6864253B2, “Benzo[4,5]thieno[2,3-c]pyridine and Benzo[4,5]furo[2,3-c]pyridine Derivatives Useful as Inhibitors of Phosphodiesterase” (Orth-McNeil Pharmaceutical, Inc., priority 2000, dated 2005).

Each structure is given as a SMILES string.

Data set [1] deals with T1, PDEV (Homo sapiens, UniProt O76074).
T1 construct: rabbit or human tissues were homogenized in an ice-cold buffer solution; from tissue; host or cells: human tissue
Put plainly: Cyclic nucleotide phosphodiesterase (PDE) assay, inhibition of PDEV isolated from human tissue. Type of data set: biochemical. The conditions noted are these: footnote a: tested using human tissue; for IC50: PDEV. How it is done:
PDEV was isolated from rabbit and human tissues according to the protocol described by Boolell et al. (Boolell, M., Allen, M. J., Ballard, S. A., Ge[o-Attee, S., Muirhead, G. J., Naylor, A. M., Osterloh, I. H., and Gingell, C) in International Journal of Impotence Research 1996 8, 47-52 with minor modifications.
Briefly, rabbit or human tissues were homogenized in an ice-cold buffer solution containing 20 mM HEPES (pH 7.2), 0.25M sucrose, 1 mM EDTA, and 1 mM phenylmethylsulphonyl fluoride (PMSF). The homogenates were centrifuged at 100,000 g for 60 minutes at 4° C. The supernatant was filtered through […] filter and loaded on a Pharmacia Mono Q anion exchange column (1 ml bed volume) that was equilibrated with 20 mM HEPES, 1 mM EDTA and 0.5 mM PMSF. After washing out unbound proteins, the enzymes were eluted with a linear gradient of 100-600 mM NaCl in the same buffer (35 to 50 ml total, depending on the tissue. Enzymes from the skeletal muscle, corpus cavernosum, retina, heart and platelet were eluted with 35, 40, 45, 50, and 50 ml respectively.) The column was run at a flow rate of 1 ml/min and 1 ml fractions were collected. The fractions comprising various PDE activities were pooled separately and used in later studies.
The PDE assay was carried out as described by Thompson and Appleman in Biochemistry 1971 10, 311-316 with minor modifications, as noted below.
The assays were adapted to a 96-well format. The enzyme was assayed in 5 mM MgCl2, 15 mM Tris HCl (pH 7.4), 0.5 mg/ml bovine serum albumin, 1 μM cGMP or cAMP, 0.1 μCi [^3H]-cGMP or [^3H]-cAMP, and 2-10 μl of column elution. The total volume of the assay was 100 μl. The reaction mixture was incubated at 30° C. for 30 minutes. The reaction was stopped by boiling for 1 minute and then cooled down on ice. The resulting [^3H] 5′-mononucleotides were further converted to uncharged [^3H]-nucleosides by adding 25 μl 1 mg/ml snake venom (Ophiophagus hannah) and incubating at 30° C. for 10 minute. The reaction was stopped by the addition of 1 ml Bio-Rad AG1-X2 resin slurry (1:3). All the charged nucleotides were bound by the resin and only the uncharged [^3H]-nucleosides remained in the supernatant after centrifuging. An aliquot of 200 μl was taken and counted by liquid scintillation. PDE activity was expressed as pmol cyclic nucleotide hydrolyzed/min/ml of enzyme preparation.
Inhibitor studies were carried out in assay buffer with a final concentration of 10% DMSO. Under these conditions, the hydrolysis of product increased with time and enzyme concentration in a linear fashion.

In the next data set the test system is erectile dysfunction. The conditions noted are these: cited from earlier work.
Data set [2] has as its target T2, PDEV (Oryctolagus cuniculus, UniProt G1SX67). The data set can be described thus: In vitro determination of Ki for phosphodiesterase inhibitors (IC50/Ki, 30 nM 3H-cGMP). Type of data set: biochemical. The conditions noted are these: printed in the % INH column as Ki value.
Protocol: The assay was adapted to a 96-well format. Phosphodiesterase was assayed in 5 mM MgCl2, 15 mM Tris HCl (pH 7.4), 0.5 mg/ml bovine serum albumin, 30 nM ^3H-cGMP and test compound at various concentrations. […] For all measurements, the test compound was dissolved and diluted in 100% DMSO (2% DMSO in assay). The total volume of the assay was 100 μl. The reaction mixture was incubated at 30° C. for 90 minutes. The reaction was stopped by boiling for 1 minute and then immediately cooled by transfer to an ice bath. To each well was then added 25 μl 1 mg/ml snake venom (Ophiophagus hannah) and the reaction mixture incubating at 30° C. for 10 minute. The reaction was stopped by the addition of 1 ml Bio-Rad AG1-X2 resin slurry (1:3). An aliquot of 200 μl was taken and counted by liquid scintillation.
The % inhibition of the maximum substrate conversion (by the enzyme in the absence of inhibitor) was calculated for each test compound concentration. Using GraphPad Prism′s nonlinear regression analysis (sigmoidal dose response), the % inhibition vs log of the test compound concentration was plotted to determine the IC50. Under conditions where substrate concentration <<Km of the enzyme (Km=substrate concentration at which half of the maximal velocity of the enzyme is achieved), Ki is equivalent to the IC50 value. […]
The target in data set [3] is T2, PDEV. Put plainly: Cyclic nucleotide phosphodiesterase (PDE) assay, inhibition of PDEV isolated from rabbit tissue. Type of data set: biochemical. The conditions noted are these: 10 μM test compound, rabbit PDEV. An outline of the steps: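 PDEV came from rabbit tissue homogenate, using Mono Q anion-exchange fractions. Reactions used 1 μM cGMP or cAMP with [3H]-tracer, 5 mM MgCl2 and Tris pH 7.4 at 30 °C for 30 min; snake venom converted product to [3H]-nucleosides, read by scintillation after resin separation. Inhibitors ran in 10% DMSO final.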

Regarding `c1ccc2[nH]c(N3CCc4c([nH]c5ccccc45)C3c3ccc4c(c3)OCO4)nc2c1` (stereo not shown) [Cmpd 172], the “% INH @ 10 μM” value on PDEV [1] (10 μM test compound) was 44^a %. Take `c1cnc(N2CCc3c([nH]c4ccccc34)C2c2ccc3c(c2)OCO3)nc1` (stereo not shown) [Cmpd 168]: at PDEV [1], the IC50 was 2150 nM. Regarding `CCCc1nn(C)c2c(=O)[nH]c(-c3cc(S(=O)(=O)N4CCN(C)CC4)ccc3OCC)nc12` [sildenafil, 5-[2-ethoxy-5-(4-methylpiperazin-1-ylsulphonyl)phenyl]-1-methyl-3-n-propyl-6,7-dihydro-1H-pyrazolo[4,3-d]pyrimidin-7-one], the “improved sexual function, share of men” value with erectile dysfunction (men who suffer from ED of psychogenic or organic etiology) is listed as “about 70%”. Further, the “improved erections, share of patients” value with erectile dysfunction (patients who had undergone a radical prostatectomy, 15% on placebo) is reported as 43%. As for `COc1ccc(-c2cnc(N3CC(=O)c4c([nH]c5ccccc45)C3c3ccc4c(c3)OCO4)nc2)cc1` (stereo not shown) [Cmpd 162], the midpoint of inhibition on PDEV [1], the IC50, lay at 24 nM.

At PDEV [1], `COc1ccc(-c2cnc(N3CCc4c([nH]c5ccccc45)C3c3ccc4c(c3)OCCO4)nc2)cc1` (stereo not shown) [Cmpd 184] gave an IC50 of 640 nM. This IC50 is about 27-fold higher than that of the compound before. In turn, `c1ccc(-c2ccc(N3CCc4c([nH]c5ccccc45)C3c3ccc4c(c3)CCO4)nc2)nc1` (stereo not drawn) [Cmpd 191, 2-[2,3′]Bipyridinyl-6′-yl-1-(2,3-dihydro-benzofuran-5-yl)-2,3,4,9-tetrahydro-1H-β-carboline] gave a Ki on PDEV [2] of 0.69 nM. Regarding `COc1ccc(-c2cnc(N3CC(=O)c4c([nH]c5ccccc45)C3c3ccc4c(c3)OCO4)nc2)cc1OC` (stereo not shown) [Cmpd 157], the IC50 against PDEV [1] is 8.7 nM.

Take `Cc1ncc(-c2cnc(N3CCc4c([nH]c5ccccc45)C3c3ccc4c(c3)CCO4)nc2)n1C` (stereo not drawn) [Cmpd 190, 1-(2,3-Dihydro-benzofuran-5-yl)-2-[5-(2,3-dimethyl-3H-imidazol-4-yl)-pyrimidin-2-yl]-2,3,4,9-tetrahydro-1H-β-carboline]: the affinity on PDEV [2] corresponds to a Ki of 14.2 nM. Turning to `c1ccc(-c2cnc(N3CCc4c([nH]c5ccccc45)C3c3ccc4c(c3)OCO4)nc2)nc1` (stereo not shown) [Cmpd 183], the IC50 against PDEV [1] turned out to be 122 nM. For the compound `COc1ccc(-c2cnc(N3CCc4c([nH]c5ccccc45)C3c3ccc4c(c3)OCO4)nc2)cc1OC` (stereo not drawn) [Cmpd 7, 1-(3,4-Methylenedioxyphenyl)-2-[5-(3,4-dimethoxyphenyl)pyrimidin-2-yl]-2,3,4,9-tetrahydro-1H-β-carboline], the melting point was in the range of 173 to 175 °C. Also, the inhibition at 10 µM on PDEV [3] (read-out: % Inh @ 10 μM (rabbit)) worked out at 91%.

`COc1ccc(-c2cnc(N3CCc4c([nH]c5ccccc45)C3c3ccc4c(c3)CCO4)nc2)cc1` (stereo not shown) [Cmpd 174] registered an IC50 at PDEV [1] of 150 nM. On to `CN(C)CCn1c2c(c3ccccc31)CCN(C(=O)c1ccc(-c3ccc(Cl)cc3)o1)C2c1ccc2c(c1)OCO2` (stereo not shown) [Cmpd 39], for which the “% Inh @ 10 μM (rabbit)” value at PDEV [3] is listed as 93%. Consider `COc1ccc(C2c3[nH]c4ccccc4c3CCN2C(=O)c2cc(C(C)(C)C)nn2Cc2ccccc2)cc1OC` (stereo not shown) [Cmpd 134], for which the “% Inh @ 10 μM (rabbit)” value at PDEV [3] was found to be 5%. With `O=C(c1ccc(-c2cccc(C(F)(F)F)c2)o1)N1CCc2c([nH]c3ccccc23)C1c1ccc2c(c1)OC(F)(F)O2` (stereo not shown) [Cmpd 22], on PDEV [3], the “% Inh @ 10 μM (rabbit)” value is 16%.

By IC50 is commonly meant the concentration needed to halve the response being measured. As usually defined, the Ki is a measure of affinity in units of concentration, obtained from inhibition or displacement. For orientation: melting point means the temperature of the solid-liquid transition.
